Consider two compounds from PMC7457137, “An Integrated Pharmacokinetic Study of an Acanthopanax senticosus Extract Preparation by Combination of Virtual Screening, Systems Pharmacology, and Multi-Component Pharmacokinetics in Rats” (Frontiers in Pharmacology, 2020).

Like-named read-outs stand apart in the source and are kept apart here.

A short description of data set [1]: Multi-component PK in rats after i.v. administration of ASEP. The class given is in vivo, Sprague-Dawley rats. The settings on record: for AUC(0-t) / AUC(0-inf) / clearance / MRT last / MRT inf / Vd / half-life: male, Sprague-Dawley, rat, iv; for AUC(0-t): read-out: AUC0-t; for AUC(0-inf): read-out: AUC0-∞; for clearance: read-out: Cl (converted); for MRT last: read-out: MRT0-t; for MRT inf: read-out: MRT0-∞; for Vd: read-out: Vd. The method, then: The animal experiments were conducted in line with the Guide for the Care and Use of Laboratory Animals (published by the USA National Institutes of Health, NIH Publication no. 85-23, revised 1996), which were approved by the Animal Care and Use Committee of the College of Animal Science (College of Bee Science), Fujian Agriculture and Forestry University (Approval Number: […]2019004). […] All rats were acclimated to the facilities and environment for 7 days before the experiments. […] The gradient elution was carried out by the mobile phase water with 0.1% formic acid (A) and methanol (B). […] The column temperature and flow rate were at 35 °C and 0.5 ml/min, resepectively. 5 μl sample solution was injected for the HPLC-MS analysis. The electrospray ionization (ESI) source conditions were as follows: block heating temperature was kept at 400 °C; desolvation line temperature was set at 250 °C; dry gas (nitrogen) flow rate was kept at 15 L/min; and auxiliary gas (nitrogen) flow rate was 3 L/min. […] The plasma samples were separated by centrifugation, followed by storing at -20 °C before analysis. […] A DAS 3.0 software (Chinese Pharmacologic Society, Beijing, China) was used to calculate the noncompartmental PK parameters. All the results were presented as mean ± SD, and statistics analysis was done with a single-tailed Student's t test in the work.

Data set [2] relates to insulin resistance. Details: method as in Ma et al., 2015. Conditions: high-fat diet-fed rats; ref Ma et al., 2015; cited from earlier work.
The test system of data set [3] is human umbilical vein endothelial cells. Set-up: method as in Lin et al., 2017; Hu et al., 2018. Conditions: ref Lin et al., 2017, Hu et al., 2018; cited from earlier work.
The subject of a further data set is zebrafish model. Set-up: method as in Lin et al., 2017; Hu et al., 2018. The settings on record: ref Lin et al., 2017, Hu et al., 2018; cited from earlier work.
A short description of data set [4]: Stability of the compounds in rat plasma (LC-MS validation). Type of data set: in vitro ADME. An excerpt: According to the “Guidelines for non-clinical pharmacokinetics of drugs” issued by Centre for Drug Evaluation, National Medical Products Administration, China ([Guidelines for non-clinical pharmacokinetics of drugs, 2014]), the LC-MS method was validated by linearity, limits of detection (LOD), limits of quantification (LOQ), precision, accuracy, extraction recovery, matrix effect and stability of the 6 compounds in rat plasma. In brief, blank rat plasma was obtained from the other six rats. The standard mixture solution containing the 6 compounds (with the concentration of 1 mg/ml for each) was diluted with […] to prepare a series of working solution containing the 6 compounds (concentration level: 20, 50, 100, 250, 500 ng/ml and 1, 2.5, 5, 10, 25, 50, 100, 125 150, 200 μg/ml) and IS (2.5μg/ml). For calibration curve, 10 μl of the series of working solution containing the IS (2.5μg/ml) was added into 100 μl of blank plasma. Finally, 15 data points (2, 5, 10, 25, 50, 100, 250, 500 ng/ml and 1, 2.5, 5, 10, 12.5 15, 20 μg/ml) were used in the calibration curve linearity. Calibration curves were plotted by weighted linear regression of the peak area ratio of analyte to the IS against the related nominal concentration of the analyte. LOD and LOQ were defined as the detectable concentration at which the ratio of signal to noise was about 3 and 10, respectively ([Huang et al., 2019]). […] The extraction recovery and matrix effect were also assessed at the above-mentioned three concentration levels for the 6 ingredients in the spiked plasma samples ([Huang et al., 2019]). Stability was examined under the condition of setting un-treated plasma samples at ambient temperature for 6 h, and extracted plasma samples in auto-sampler for 10 h, as well as setting plasma samples for three freeze-thaw cycles and at −80°C for 15 days ([Guidelines for non-clinical pharmacokinetics of drugs, 2014]).

Data set [5] concerns insulin resistance. Details: method as in Kim et al., 2017. The settings on record: high-fat diet-fed mice; ref Kim et al., 2017; cited from earlier work.
For data set [6] the following is noted: after ASEP; ref Fan et al., 2015; cited from earlier work.
The mark [7] stands for this setting: plasma, 1.76 ml/kg, rat plasma, Low group: single i.v. 1.76 ml/kg of 5 times concentrated ASEP, mean ± SD, n=3.
[8] abbreviates: plasma, 3.52 ml/kg, rat plasma, High group: single i.v. 3.52 ml/kg of 5 times concentrated ASEP, mean ± SD, n=3.

By Vd is commonly meant a proportionality between amount in the body and measured concentration, not a real space. In the case of `O=C(/C=C/c1ccc(O)c(O)c1)O[C@@H]1C[C@](O)(C(=O)O)C[C@@H](O)[C@H]1O` [3-CQA, 3-caffeoylquinic acid], in data set [1] (setting [7]), the AUC(0-t) worked out at 1830 ng·h/mL, the AUC(0-inf) was 1830 ng·h/mL, the clearance was 8.5 mL/min and the MRT last is 25.8 ± 1.2 min. For the same compound, in data set [1] (setting [7]), the MRT inf amounted to 25.8 ± 1.2 min and the distribution volume (Vd) was 0.26 ± 0.01 L. Further, the half-life in data set [1] (plasma, 1.76 ml/kg, rat plasma, Low group: single i.v. 1.76 ml/kg of 5 times concentrated ASEP, mean ± SD, n=3, read-out: t 1/2 (converted)) was 21.6 ± 0.6 min. Besides, in data set [1] (setting [8]), the AUC(0-t) stood at 3410 ng·h/mL, the AUC(0-inf) amounted to 3420 ng·h/mL, the clearance is 9 mL/min and the MRT last is 25.2 min. In addition, in data set [1] (setting [8]), the MRT inf amounted to 25.8 min and the Vd is 0.64 L. In addition, the half-life in data set [1] (plasma, 3.52 ml/kg, rat plasma, High group: single i.v. 3.52 ml/kg of 5 times concentrated ASEP, mean ± SD, n=3, read-out: t 1/2 (converted)) is 48.6 min. The “effect on insulin resistance” value in the data set with insulin resistance [2] is recorded as “improve insulin resistance”. Also, the “effect on VEGF-induced angiogenesis” value in data set [3] is reported as “significant inhibitory effects”. Also, in the data set on zebrafish model, the “effect on VEGF-induced angiogenesis” value is reported as “significant inhibitory effects”.

In the case of `COc1cc(/C=C/CO)cc(OC)c1O[C@@H]1O[C@H](CO)[C@@H](O)[C@H](O)[C@H]1O` [EB, eleutheroside B], in data set [1] (PK time points 2.5, 5, 10, 15 and 20 min after single i.v. 3.52 ml/kg of 5 times concentrated ASEP, preliminary examination), the “ingredient concentration in rat plasma” value was greater than 0.5 ng/mL. Besides, the AUC(0-t) in data set [1] (in vivo, 1.76 ml/kg) was found to be 3040 ng·h/mL; in data set [1] (in vivo, 3.52 ml/kg), 4530 ng·h/mL. The AUC(0-inf) in data set [1] (in vivo, 1.76 ml/kg) amounted to 3060 ng·h/mL; in data set [1] (in vivo, 3.52 ml/kg), 4540 ng·h/mL. The clearance in data set [1] (in vivo, 1.76 ml/kg) was 9.17 mL/min; in data set [1] (in vivo, 3.52 ml/kg) it was 12.3 mL/min. For the same compound, the MRT last in data set [1] (in vivo, 1.76 ml/kg) was 26.4 min; in data set [1] (in vivo, 3.52 ml/kg), 26.4 ± 0.6 min. The MRT inf in data set [1] (in vivo, 1.76 ml/kg) is 31.2 ± 0.6 min; in data set [1] (in vivo, 3.52 ml/kg), 30 ± 1.2 min. Moreover, the Vd worked out at 3.45 ± 0.1 L in data set [1] (in vivo, 1.76 ml/kg) and 3.38 ± 1.15 L in data set [1] (in vivo, 3.52 ml/kg). Moreover, the half-life in data set [1] (in vivo, 1.76 ml/kg, read-out: t 1/2 (converted)) is 261 ± 6 min; in data set [1] (in vivo, 3.52 ml/kg, read-out: t 1/2 (converted)), 190 ± 65.4 min; in data set [1] (in vivo, read-out: t 1/2 (elimination in rat blood)) it was no less than 190 min. For the same compound, the “Stability, RE” value in data set [4] (extracted plasma samples, 10h in auto-sampler vials, high spiked level (HQC, 8000-16000 ng/mL)) is reported as 1.92%; in data set [4] (extracted plasma samples, 10h in auto-sampler vials, low spiked level (LQC, 5-30 ng/mL)), 12.12%; in data set [4] (extracted plasma samples, 10h in auto-sampler vials, middle spiked level (MQC, 400-1600 ng/mL)), -0.97%; in data set [4] (rat plasma, 6h at room temperature, high spiked level (HQC, 8000-16000 ng/mL)), -4.48%; in data set [4] (rat plasma, 6h at room temperature, low spiked level (LQC, 5-30 ng/mL)), -5.59%; in data set [4] (rat plasma, 6h at room temperature, middle spiked level (MQC, 400-1600 ng/mL)), -14.91%. Besides, the “Stability, RE” value in data set [4] (rat plasma, freeze-thaw stability (three cycles), high spiked level (HQC, 8000-16000 ng/mL)) is listed as -4.14%; in data set [4] (rat plasma, freeze-thaw stability (three cycles), low spiked level (LQC, 5-30 ng/mL)), 4.10%; in data set [4] (rat plasma, freeze-thaw stability (three cycles), middle spiked level (MQC, 400-1600 ng/mL)), -0.75%; in data set [4] (rat plasma, long-term stability (-80℃,15 days), high spiked level (HQC, 8000-16000 ng/mL)) it was 6.11%; in data set [4] (rat plasma, long-term stability (-80℃,15 days), low spiked level (LQC, 5-30 ng/mL)), -8.20%; in data set [4] (rat plasma, long-term stability (-80℃,15 days), middle spiked level (MQC, 400-1600 ng/mL)) it was -4.54%. Moreover, the “effect on insulin resistance” value in the data set with insulin resistance [5] is listed as “improve insulin resistance”. Moreover, in data set [6], the “PK profile in cerebral ischemia-reperfusion rats compared with the normal group” value is listed as “accumulated”.
